Measured values from ChEMBL document CHEMBL2157929, “Synthesis and structure-activity relationship of fused-pyrimidine derivatives as a series of novel GPR119 agonists” (Bioorg Med Chem, 2012).
Values after ≈ are worked out from the molar mass of the structure shown.

Test system: Mus musculus
Experiment: Antihyperglycemic activity in po dosed ICR mouse assessed as reduction of blood glucose level after 30 mins by oral glucose tolerance test
Format: functional
Details: 0.5 h, read-out: MED; call rule not given here

| SMILES | minimal effective dose |
| --- | --- |
| NC(=O)CN1CCN(c2nc(-c3cc(F)c(Cl)cc3F)nc3c2CS(=O)(=O)C3)CC1 | 3 mg/kg |
| O=S1(=O)Cc2nc(-c3cc(F)c(Cl)cc3F)nc(N3CCC(O)CC3)c2C1 | 1 mg/kg |
| NC(=O)C1CCN(c2nc(-c3cc(F)c(Cl)cc3F)nc3c2CS(=O)(=O)C3)CC1 | 3 mg/kg |
| CN(C)C(=O)C1CCN(c2nc(-c3cc(F)c(Cl)cc3F)nc3c2CS(=O)(=O)C3)CC1 | 1 mg/kg |
| O=S1(=O)Cc2nc(-c3cc(F)c(Cl)cc3F)nc(N3CCC(CCO)CC3)c2C1 | 1 mg/kg |
| CNC(=O)C1CCN(c2nc(-c3cc(F)c(Cl)cc3F)nc3c2CS(=O)(=O)C3)CC1 | 3 mg/kg |
| O=S1(=O)Cc2nc(-c3cc(F)c(Cl)cc3F)nc(N3CCC(CO)CC3)c2C1 | 0.3 mg/kg |
| O=S1(=O)Cc2nc(-c3cc(F)c(Cl)cc3F)nc(N3CCOCC3)c2C1 | 1 mg/kg |
| NC(=O)CCC1CCN(c2nc(-c3cc(F)c(Cl)cc3F)nc3c2CS(=O)(=O)C3)CC1 | 0.3 mg/kg |
| NC(=O)CC1CCN(c2nc(-c3cc(F)c(Cl)cc3F)nc3c2CS(=O)(=O)C3)CC1 | 0.1 mg/kg |
| O=C(O)C1CCN(c2nc(-c3cc(F)c(Cl)cc3F)nc3c2CS(=O)(=O)C3)CC1 | > 3 mg/kg |

Test system: Mus musculus
Experiment: Antihyperglycemic activity in ICR mouse assessed as reduction of blood glucose level at 0.1 mg/kg, po after 30 mins by oral glucose tolerance test
Format: functional
Parameters: scale not given: the % may be the effect or the level left
Details: not given

| SMILES | Activity |
| --- | --- |
| NC(=O)CC1CCN(c2nc(-c3cc(F)c(Cl)cc3F)nc3c2CS(=O)(=O)C3)CC1 | 27% |

Test system: Mus musculus
Experiment: Antihyperglycemic activity in ICR mouse assessed as reduction of blood glucose level at 0.3 mg/kg, po after 30 mins by oral glucose tolerance test
Format: functional
Parameters: scale not given: the % may be the effect or the level left
Details: not given

| SMILES | Activity |
| --- | --- |
| NC(=O)CCC1CCN(c2nc(-c3cc(F)c(Cl)cc3F)nc3c2CS(=O)(=O)C3)CC1 | 30% |

Biological target: T1, Glucose-dependent insulinotropic receptor (Homo sapiens) (UniProt Q8TDV5)
T1 sequence (whole entry): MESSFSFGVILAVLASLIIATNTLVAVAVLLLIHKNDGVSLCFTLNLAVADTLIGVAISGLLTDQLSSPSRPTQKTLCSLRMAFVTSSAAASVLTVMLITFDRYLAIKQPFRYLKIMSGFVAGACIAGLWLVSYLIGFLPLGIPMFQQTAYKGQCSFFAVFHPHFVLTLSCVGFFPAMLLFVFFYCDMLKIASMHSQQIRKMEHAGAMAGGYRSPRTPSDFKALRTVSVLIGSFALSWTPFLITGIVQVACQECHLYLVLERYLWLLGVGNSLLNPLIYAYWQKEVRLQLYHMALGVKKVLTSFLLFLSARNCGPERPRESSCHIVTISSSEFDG
Experiment: Agonist activity at human recombinant GPR119 expressed in HEK293 cells co-expressing pCRE-Luc at 10 uM after 6 hrs by cAMP reporter assay relative to 2-(2-(4-bromophenyl)-6-methylpyrimidin-4-ylamino)ethanol
Format: functional, cell-based
Details: not given

| Intrinsic activity | SMILES |
| --- | --- |
| 405% | Fc1cc(-c2nc3c(c(N4CCOCC4)n2)CCC3)c(F)cc1Cl |
| 294% | NC(=O)C1CCN(c2nc(-c3cc(F)c(Cl)cc3F)nc3c2CS(=O)(=O)C3)CC1 |
| 668% | O=S1(=O)Cc2nc(-c3cc(F)c(Cl)cc3F)nc(N3CCOCC3)c2C1 |
| 483% | NC(=O)CC1CCN(c2nc(-c3cc(F)c(Cl)cc3F)nc3c2CS(=O)(=O)C3)CC1 |
| 528% | O=C(O)C1CCN(c2nc(-c3cc(F)c(Cl)cc3F)nc3c2CS(=O)(=O)C3)CC1 |

Second part, the molecule before the results:

| SMILES | Intrinsic activity |
| --- | --- |
| NC(=O)CN1CCN(c2nc(-c3cc(F)c(Cl)cc3F)nc3c2CS(=O)(=O)C3)CC1 | 737% |
| O=S1(=O)Cc2nc(-c3cc(F)c(Cl)cc3F)nc(N3CCC(O)CC3)c2C1 | 575% |
| Fc1cc(-c2nc3c(c(N4CCOCC4)n2)COC3)c(F)cc1Cl | 205% |
| Fc1cc(-c2nc3c(c(N4CCOCC4)n2)CSC3)c(F)cc1Cl | 467% |
| CN(C)C(=O)C1CCN(c2nc(-c3cc(F)c(Cl)cc3F)nc3c2CS(=O)(=O)C3)CC1 | 292% |
| O=S1(=O)Cc2nc(-c3cc(F)c(Cl)cc3F)nc(N3CCC(CCO)CC3)c2C1 | 506% |
| Fc1cc(-c2nc3c(c(N4CCOCC4)n2)SCC3)c(F)cc1Cl | 426% |
| CNC(=O)C1CCN(c2nc(-c3cc(F)c(Cl)cc3F)nc3c2CS(=O)(=O)C3)CC1 | 457% |
| Fc1cc(-c2nc3c(c(N4CCOCC4)n2)CCS3)c(F)cc1Cl | 258% |
| O=S1(=O)Cc2nc(-c3cc(F)c(Cl)cc3F)nc(N3CCC(CO)CC3)c2C1 | 501% |
| Fc1cc(-c2nc3c(c(N4CCOCC4)n2)CCCC3)c(F)cc1Cl | 313% |
| NC(=O)CCC1CCN(c2nc(-c3cc(F)c(Cl)cc3F)nc3c2CS(=O)(=O)C3)CC1 | 627% |

Test system: Mus musculus
Experiment: Antihyperglycemic activity in ICR mouse assessed as reduction of blood glucose level at 3 mg/kg, po after 30 mins by oral glucose tolerance test
Format: functional
Parameters: scale not given: the % may be the effect or the level left
Details: not given

| SMILES | Activity |
| --- | --- |
| O=C(O)C1CCN(c2nc(-c3cc(F)c(Cl)cc3F)nc3c2CS(=O)(=O)C3)CC1 | 15% |

Test system: not listed separately
Experiment: Solubility of compound at pH 6.8 after 20 hrs by precipitation method
Format: physicochemical
Details: buffer

| solubility kinetic at 20 h | SMILES |
| --- | --- |
| 40 µM (≈ 17.7 µg/mL) | NC(=O)C1CCN(c2nc(-c3cc(F)c(Cl)cc3F)nc3c2CS(=O)(=O)C3)CC1 |
| < 1 µM | O=S1(=O)Cc2nc(-c3cc(F)c(Cl)cc3F)nc(N3CCOCC3)c2C1 |
| 15 µM (≈ 6.85 µg/mL) | NC(=O)CC1CCN(c2nc(-c3cc(F)c(Cl)cc3F)nc3c2CS(=O)(=O)C3)CC1 |

The next lines start with the molecule.

| SMILES | solubility kinetic at 20 h |
| --- | --- |
| NC(=O)CN1CCN(c2nc(-c3cc(F)c(Cl)cc3F)nc3c2CS(=O)(=O)C3)CC1 | > 100 µM |
| O=S1(=O)Cc2nc(-c3cc(F)c(Cl)cc3F)nc(N3CCC(O)CC3)c2C1 | 91 µM (≈ 37.8 µg/mL) |
| CN(C)C(=O)C1CCN(c2nc(-c3cc(F)c(Cl)cc3F)nc3c2CS(=O)(=O)C3)CC1 | > 100 µM |
| O=S1(=O)Cc2nc(-c3cc(F)c(Cl)cc3F)nc(N3CCC(CCO)CC3)c2C1 | 23 µM (≈ 10.2 µg/mL) |
| CNC(=O)C1CCN(c2nc(-c3cc(F)c(Cl)cc3F)nc3c2CS(=O)(=O)C3)CC1 | 11 µM (≈ 5.03 µg/mL) |
| O=S1(=O)Cc2nc(-c3cc(F)c(Cl)cc3F)nc(N3CCC(CO)CC3)c2C1 | 16 µM (≈ 6.88 µg/mL) |
| NC(=O)CCC1CCN(c2nc(-c3cc(F)c(Cl)cc3F)nc3c2CS(=O)(=O)C3)CC1 | 8 µM (≈ 3.77 µg/mL) |

Test system: Mus musculus
Experiment: Antihyperglycemic activity in ICR mouse assessed as reduction of blood glucose level at 1 mg/kg, po after 30 mins by oral glucose tolerance test
Format: functional
Parameters: scale not given: the % may be the effect or the level left
Details: not given

| SMILES | Activity |
| --- | --- |
| NC(=O)CN1CCN(c2nc(-c3cc(F)c(Cl)cc3F)nc3c2CS(=O)(=O)C3)CC1 | 17% |
| O=S1(=O)Cc2nc(-c3cc(F)c(Cl)cc3F)nc(N3CCC(O)CC3)c2C1 | 32% |
| NC(=O)C1CCN(c2nc(-c3cc(F)c(Cl)cc3F)nc3c2CS(=O)(=O)C3)CC1 | 12% |
| CN(C)C(=O)C1CCN(c2nc(-c3cc(F)c(Cl)cc3F)nc3c2CS(=O)(=O)C3)CC1 | 32% |
| O=S1(=O)Cc2nc(-c3cc(F)c(Cl)cc3F)nc(N3CCC(CCO)CC3)c2C1 | 29% |
| O=S1(=O)Cc2nc(-c3cc(F)c(Cl)cc3F)nc(N3CCC(CO)CC3)c2C1 | 29% |
| O=S1(=O)Cc2nc(-c3cc(F)c(Cl)cc3F)nc(N3CCOCC3)c2C1 | 30% |
| NC(=O)CC1CCN(c2nc(-c3cc(F)c(Cl)cc3F)nc3c2CS(=O)(=O)C3)CC1 | 35% |

Test system: not listed separately
Experiment: Inhibition of cytochrome P450 up to 50 uM
Format: ADME
Details: not given

| inhibition (INH) | SMILES |
| --- | --- |
| Not Active | NC(=O)CC1CCN(c2nc(-c3cc(F)c(Cl)cc3F)nc3c2CS(=O)(=O)C3)CC1 |

Test system: not listed separately
Experiment: Clearance in human liver microsomes
Format: ADME, Microsome
Details: read-out: CLH

| CLint scaled | SMILES |
| --- | --- |
| 58 mL/min/kg | NC(=O)CC1CCN(c2nc(-c3cc(F)c(Cl)cc3F)nc3c2CS(=O)(=O)C3)CC1 |

Biological target: T1, Glucose-dependent insulinotropic receptor (Homo sapiens)
Experiment: Agonist activity at human recombinant GPR119 expressed in HEK293 cells co-expressing pCRE-Luc assessed as concentration required to showing equipotent efficacy to 2-(2-(4-bromophenyl)-6-methylpyrimidin-4-ylamino)ethanol after 6 hrs by cAMP reporter assay
Format: functional, cell-based
Details: not given

| EC | SMILES |
| --- | --- |
| 350 nM | Fc1cc(-c2nc3c(c(N4CCOCC4)n2)CCC3)c(F)cc1Cl |
| 21 nM | NC(=O)C1CCN(c2nc(-c3cc(F)c(Cl)cc3F)nc3c2CS(=O)(=O)C3)CC1 |
| 28 nM | O=S1(=O)Cc2nc(-c3cc(F)c(Cl)cc3F)nc(N3CCOCC3)c2C1 |
| 8.3 nM | NC(=O)CC1CCN(c2nc(-c3cc(F)c(Cl)cc3F)nc3c2CS(=O)(=O)C3)CC1 |
| 560 nM | O=C(O)C1CCN(c2nc(-c3cc(F)c(Cl)cc3F)nc3c2CS(=O)(=O)C3)CC1 |

The next lines start with the molecule.

| SMILES | EC |
| --- | --- |
| NC(=O)CN1CCN(c2nc(-c3cc(F)c(Cl)cc3F)nc3c2CS(=O)(=O)C3)CC1 | 44 nM |
| O=S1(=O)Cc2nc(-c3cc(F)c(Cl)cc3F)nc(N3CCC(O)CC3)c2C1 | 14 nM |
| Fc1cc(-c2nc3c(c(N4CCOCC4)n2)COC3)c(F)cc1Cl | 4100 nM |
| Fc1cc(-c2nc3c(c(N4CCOCC4)n2)CSC3)c(F)cc1Cl | 150 nM |
| CN(C)C(=O)C1CCN(c2nc(-c3cc(F)c(Cl)cc3F)nc3c2CS(=O)(=O)C3)CC1 | 350 nM |
| O=S1(=O)Cc2nc(-c3cc(F)c(Cl)cc3F)nc(N3CCC(CCO)CC3)c2C1 | 2.8 nM |
| Fc1cc(-c2nc3c(c(N4CCOCC4)n2)SCC3)c(F)cc1Cl | 57 nM |
| CNC(=O)C1CCN(c2nc(-c3cc(F)c(Cl)cc3F)nc3c2CS(=O)(=O)C3)CC1 | 51 nM |
| Fc1cc(-c2nc3c(c(N4CCOCC4)n2)CCS3)c(F)cc1Cl | 970 nM |
| O=S1(=O)Cc2nc(-c3cc(F)c(Cl)cc3F)nc(N3CCC(CO)CC3)c2C1 | 3.9 nM |
| Fc1cc(-c2nc3c(c(N4CCOCC4)n2)CCCC3)c(F)cc1Cl | 770 nM |
| NC(=O)CCC1CCN(c2nc(-c3cc(F)c(Cl)cc3F)nc3c2CS(=O)(=O)C3)CC1 | 18 nM |
